Consider one molecule from US10087199B2, “Super-resolution imaging compositions and methods using same” (Yale University, priority 2014, dated 2018).

Series [1] has as its system HeLa cells that stably expressed GalNAcT2-GFP (Golgi). The series is described as follows: Two-step Golgi labeling and colocalization with GalNAcT2-GFP by confocal microscopy. To be noted: 2 μM Cer-TCO then 2 μM SiR-Tz, or SiR-Tz only; Golgi area; confocal. The format is cell-based. The protocol:
To evaluate whether the Golgi could be selectively imaged using Cer-SiR, HeLa cells that stably expressed a protein fusion composed of GFP and N-acetyl-galactosaminyltransferase 2 (GalNAcT2), a transmembrane protein that localizes to the Golgi with high specificity (Storrie, et al., 1998, J. Cell Biol. 143:1505-1521), were used. These cells were treated with 2 μM Cer-TCO (5 min), maintained at 19.5° C. for 60 min to localize the lipid to the Golgi, treated subsequently with 2 μM SiR-Tz (30 min), and visualized using confocal microscopy (FIG. 2A).
The GalNAcT2-GFP and Cer-SiR signals colocalized with a Pearson's coefficient of 0.50±0.02; the corresponding value for the signals from GalNAcT2-GFP and SiR-Tz was 0.08±0.01 (p<0.0001) (FIG. 10), supporting that Cer-TCO effectively localized to the Golgi and reacted efficiently with SiR-Tz.
Stably or transiently transfected HeLa cells were cultured on 35 mm glass bottom dishes (Mattek). To label with Cer-TCO/SiR-Tz, the cells were incubated in PBS containing 1% casein, 0.2% Pluronic F-127 and 2 or 5 μM TCO-Cer for 5 min at 37° C. After washing three times with DMEM ph(−), the cells were incubated for 1 h at 19.5° C. in DMEM ph(−). During this incubation the dish was sealed with parafilm to protect the cells from the used water bath. Subsequently, the cells were washed three times and PBS containing 1% casein and 2 or 1 μM SiR-Tz, respectively, was added to the dish. The dish was sealed with parafilm again and incubated for 30 min at 19.5° C. After washing three times with DMEM ph(−), the cells were observed under a confocal microscope. Fixed samples were prepared similarly with an additional treatment with 4% PFA for 10 min at room temperature after first temperature block. […]
The Pearson correlation between the SiR and the GFP signal within cells was determined using the correlation measurement tool in Volocity. […] For cells stably expressing GalNAcT2-GFP and treated with SiR-Tz and Cer-TCO 13 samples (cells) were analyzed and for cells only treated with SiR-Tz 8 samples were analyzed. […]

For series [2], the system named is fixed cells with labeled Golgi. The series is described as follows: Photostability in STED microscopy of fixed cells. The format is cell-based. To be noted: 0.52 frames/sec for 29 min (900 images). The method, then:
To evaluate the merits of Cer-SiR for super-resolution imaging of the Golgi, HeLa cells that stably expressed GalNAcT2-GFP were labeled with Cer-TCO and SiR-Tz, and imaged by confocal and STED microscopy using a commercial Leica instrument (FIGS. 6A-6C). The confocal and STED images were compared in FIG. 6A. […] A direct comparison of the relative photostabilities of Cer-SiR and SiR-SNAP-Rab6 in fixed cells was performed using a custom STED microscope that is optimized for rapid image acquisition (FIG. 6B). Cells labeled with Cer-SiR or SiR-SNAPRab6 were continuously imaged at a rate of 0.52 frames/sec for 29 min (900 images) and the intensity of a line across the Golgi was plotted (FIG. 6B). […]
STED imaging was performed on a custom built system (Bewersdorf lab, Yale University) centered around an 80 MHz mode-locked Ti:Sapphhire laser (Chameleon Ultra II, Coherent) tuned to 755 nm as the STED depletion beam. […] Excitation for fluorescence was accomplished with a 640 nm pulsed diode laser (PicoQuant) electronically synchronized to the depletion beam with an additional computer controlled electronic delay (Colby Instruments). The STED depletion and fluorescence excitation beams were combined with a dichroic mirror and directed into a 100×1.4 NA oil immersion objective lens (UPLSAPO 100XO/PSF, Olympus) where they were focused at the sample. […]

In the case of `CCCCCCCCCCCCC/C=C/[C@@H](O)[C@H](CO)NC(=O)CCCCCNC(=O)OC1CCCC2=C(c3ccc(CNC(=O)c4ccc(C(=O)[O-])c(C5=C6C=CC(=[N+](C)C)C=C6[Si](C)(C)c6cc(N(C)C)ccc65)c4)cc3)NN=CC2CC1` (stereo partly drawn) [Cer-SiR, 4-((4-(7-(((6-(((2S,3R,E)-1,3-dihydroxyoctadec-4-en-2-yl)amino)-6-oxohexyl)carbamoyl)oxy)-2,4a,5,6,7,8,9,10-octahydrocycloocta[d]pyridazin-1-yl)benzyl)carbamoyl)-2-(7-(dimethylamino)-3-(dimethyliminio)-5,5-dimethyl-3,5-dihydrodibenzo[b,e]silin-10-yl)benzoate], the “Pearson's coefficient of colocalization with GalNAcT2-GFP signal” value in series [1] was 0.50±0.02. For the same molecule, the “Stability of STED images under continuous imaging” value in series [2] is recorded as “stable throughout all 900 images”.
